Assay results from ChEMBL document CHEMBL3301458, “MMV Malaria Box hERG screening”.
Active and inactive are the calls of the source. How the calls were made is not given here.

Legend:
hERG (Kv11.1, KCNH2) [1] = biological target: T1, hERG (Kv11.1, KCNH2) (Homo sapiens, UniProt Q12809); assay: in vitro
Description: MMV: Malaria Box compounds were tested for inhibition of the human ether a go-go related gene (hERG), Kv11.1 channel, using IonWorks 384-well patch clamp electrophysiology at 1.1uM (3 independent assay plates up to 12 cells per concentration).

hERG (Kv11.1, KCNH2) [2] = biological target: T1, hERG (Kv11.1, KCNH2); assay: in vitro; remark: listed apart in the source
Description: MMV: Malaria Box compounds were tested for inhibition of the human ether a go-go related gene (hERG), Kv11.1 channel, using IonWorks 384-well patch clamp electrophysiology at 11.1uM (3 independent assay plates up to 12 cells per concentration).

T1 sequence (Q12809 whole entry): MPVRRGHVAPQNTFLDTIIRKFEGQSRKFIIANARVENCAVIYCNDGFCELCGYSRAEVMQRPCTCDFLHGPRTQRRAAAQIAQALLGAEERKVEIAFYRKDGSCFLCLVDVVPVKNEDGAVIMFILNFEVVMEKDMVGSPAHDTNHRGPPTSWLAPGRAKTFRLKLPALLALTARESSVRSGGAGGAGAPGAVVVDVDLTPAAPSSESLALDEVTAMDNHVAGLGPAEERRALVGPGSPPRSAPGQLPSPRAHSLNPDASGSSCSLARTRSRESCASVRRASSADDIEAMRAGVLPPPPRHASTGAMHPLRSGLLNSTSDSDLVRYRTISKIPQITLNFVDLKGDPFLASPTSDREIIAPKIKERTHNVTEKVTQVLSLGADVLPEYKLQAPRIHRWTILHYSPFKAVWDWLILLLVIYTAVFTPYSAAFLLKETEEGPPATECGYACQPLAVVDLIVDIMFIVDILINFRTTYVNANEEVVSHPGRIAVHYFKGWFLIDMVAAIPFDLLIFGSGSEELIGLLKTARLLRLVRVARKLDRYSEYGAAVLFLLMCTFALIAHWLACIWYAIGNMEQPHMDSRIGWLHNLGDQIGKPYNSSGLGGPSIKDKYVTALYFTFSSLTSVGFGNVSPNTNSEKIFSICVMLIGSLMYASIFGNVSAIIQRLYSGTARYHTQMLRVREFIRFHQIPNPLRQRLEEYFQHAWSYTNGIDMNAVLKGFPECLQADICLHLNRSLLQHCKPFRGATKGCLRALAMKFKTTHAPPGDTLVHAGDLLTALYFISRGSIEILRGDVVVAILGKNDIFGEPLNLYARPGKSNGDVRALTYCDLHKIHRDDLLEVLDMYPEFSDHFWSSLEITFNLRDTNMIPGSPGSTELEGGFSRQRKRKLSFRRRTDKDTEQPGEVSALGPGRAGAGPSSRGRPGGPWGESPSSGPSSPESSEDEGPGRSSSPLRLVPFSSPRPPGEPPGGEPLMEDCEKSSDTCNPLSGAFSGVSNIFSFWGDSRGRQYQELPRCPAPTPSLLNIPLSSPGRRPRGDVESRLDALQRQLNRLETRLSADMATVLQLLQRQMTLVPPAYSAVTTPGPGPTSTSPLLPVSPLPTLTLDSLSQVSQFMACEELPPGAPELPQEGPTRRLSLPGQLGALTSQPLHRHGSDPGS

How did the inhibition at 1.1 µM (hERG (Kv11.1, KCNH2) [1]) turn out when `FC(F)(F)c1cccc(Nc2nc3ccccc3nc2Nc2cccc(C(F)(F)F)c2)c1` was run?
Its inhibition at 1.1 µM is -4%.

And the inhibition at 11.1 µM (hERG (Kv11.1, KCNH2) [2])?
The inhibition at 11.1 µM was 8% (inactive).

Which inhibition at 1.1 µM (hERG (Kv11.1, KCNH2) [1]) does the source give for `Cc1ccc(C(=O)c2oc3ccc4c(C)cc(=O)oc4c3c2C)cc1` here?
The inhibition at 1.1 µM was -3%.

What about the inhibition at 11.1 µM (hERG (Kv11.1, KCNH2) [2]) of the same compound?
The inhibition at 11.1 µM was 7% (inactive).

For `COc1cccc(NC(=O)Cn2c(C)c(C#N)c3ccccc32)c1`, which inhibition at 1.1 µM (hERG (Kv11.1, KCNH2) [1]) is on record?
Its inhibition at 1.1 µM is 2%.

What about the inhibition at 11.1 µM (hERG (Kv11.1, KCNH2) [2]) of the same compound?
Its inhibition at 11.1 µM is -4% (inactive).

What does the source list for `CC(C)(C)c1ccc(O)c(CNC2CCCCC2)c1`?
inhibition at 1.1 µM (hERG (Kv11.1, KCNH2) [1]): 10%; inhibition at 11.1 µM (hERG (Kv11.1, KCNH2) [2]): 35%

With `CCC(=O)Nc1nnc(Cc2ccc(OC)c(OC)c2)s1` as the compound, how does the inhibition at 1.1 µM (hERG (Kv11.1, KCNH2) [1]) read?
The inhibition at 1.1 µM was -1%.

What about the inhibition at 11.1 µM (hERG (Kv11.1, KCNH2) [2]) of the same compound?
The inhibition at 11.1 µM was -7% (inactive).

What does the source list for `CCOC(=O)c1c(NC(=O)c2ccccc2)sc2c(O)c(CN(CC)CC)ccc12`?
inhibition at 1.1 µM (hERG (Kv11.1, KCNH2) [1]): 4%; inhibition at 11.1 µM (hERG (Kv11.1, KCNH2) [2]): 23% (inactive)

How did the inhibition at 1.1 µM (hERG (Kv11.1, KCNH2) [1]) turn out when `CCOc1cc(Br)c(C(C)NC(=O)c2cccc(OC)c2)cc1OCC` (stereo unspecified) was run?
The inhibition at 1.1 µM was -12%.

And the inhibition at 11.1 µM (hERG (Kv11.1, KCNH2) [2])?
The inhibition at 11.1 µM was 2% (inactive).

Which results are given for `CCOc1cc(Cl)c(C(C)NC(=O)c2cccc(OC)c2)cc1OCC` (stereo unspecified)?
inhibition at 1.1 µM (hERG (Kv11.1, KCNH2) [1]): -3%; inhibition at 11.1 µM (hERG (Kv11.1, KCNH2) [2]): 9% (inactive)

How did the inhibition at 1.1 µM (hERG (Kv11.1, KCNH2) [1]) turn out when `FC(F)(F)c1cccc(Nc2nc(-c3ccccc3)nc3ncccc23)c1` was run?
Its inhibition at 1.1 µM is -8%.

What about the inhibition at 11.1 µM (hERG (Kv11.1, KCNH2) [2]) of the same compound?
Its inhibition at 11.1 µM is 0% (inactive).

Which inhibition at 1.1 µM (hERG (Kv11.1, KCNH2) [1]) does the source give for `CCCCOC(=O)c1ccc(Nc2cc(C)nc3ccc(OC)cc23)cc1` here?
Its inhibition at 1.1 µM is 65%.

And the inhibition at 11.1 µM (hERG (Kv11.1, KCNH2) [2])?
Its inhibition at 11.1 µM is 91%.

Which results are given for `CC(NCc1ccccc1)c1cc(Cl)ccc1O` (stereo unspecified)?
inhibition at 1.1 µM (hERG (Kv11.1, KCNH2) [1]): -4%; inhibition at 11.1 µM (hERG (Kv11.1, KCNH2) [2]): 35%

Which inhibition at 1.1 µM (hERG (Kv11.1, KCNH2) [1]) does the source give for `Cn1c(C(=O)c2cccc3ccccc23)nc2ccccc21` here?
The inhibition at 1.1 µM was -4%.

And the inhibition at 11.1 µM (hERG (Kv11.1, KCNH2) [2])?
The inhibition at 11.1 µM was 1% (inactive).

How did the inhibition at 1.1 µM (hERG (Kv11.1, KCNH2) [1]) turn out when `CCOc1ccc(C2N(C)c3ccccc3N2C)cc1` was run?
Its inhibition at 1.1 µM is 2%.

What about the inhibition at 11.1 µM (hERG (Kv11.1, KCNH2) [2]) of the same compound?
Its inhibition at 11.1 µM is 7% (inactive).

For `O=c1cc(NC2CCN(CCCc3ccccc3)CC2)c2cc(Cl)ccc2o1`, which inhibition at 1.1 µM (hERG (Kv11.1, KCNH2) [1]) is on record?
Its inhibition at 1.1 µM is 89%.

And the inhibition at 11.1 µM (hERG (Kv11.1, KCNH2) [2])?
The inhibition at 11.1 µM was 101%.

For `COc1ccc(C=C2SC(Nc3ccc(F)cc3)=NC2=O)c(OC)c1`, which inhibition at 1.1 µM (hERG (Kv11.1, KCNH2) [1]) is on record?
The inhibition at 1.1 µM was 44%.

And the inhibition at 11.1 µM (hERG (Kv11.1, KCNH2) [2])?
Its inhibition at 11.1 µM is 96% (active).

What does the source list for `O=C(Nc1ccc(-c2nc3ccccc3[nH]2)cc1)c1ccc(Cl)c(Cl)c1`?
inhibition at 1.1 µM (hERG (Kv11.1, KCNH2) [1]): 2%; inhibition at 11.1 µM (hERG (Kv11.1, KCNH2) [2]): 45%

Which results are given for `CCOc1cc(Cl)c(C(C)NC(=O)c2ccccc2)cc1OCC` (stereo unspecified)?
inhibition at 1.1 µM (hERG (Kv11.1, KCNH2) [1]): -6%; inhibition at 11.1 µM (hERG (Kv11.1, KCNH2) [2]): 7% (inactive)

For `COc1ccc(C(=O)Nc2ccc(Cl)cc2C(=O)Nc2ccncc2)cc1`, which inhibition at 1.1 µM (hERG (Kv11.1, KCNH2) [1]) is on record?
Its inhibition at 1.1 µM is -6%.

What about the inhibition at 11.1 µM (hERG (Kv11.1, KCNH2) [2]) of the same compound?
Its inhibition at 11.1 µM is -3% (inactive).

With `CCN(CC)CCNc1ncnc2c1[nH]c1ccc(Br)cc12` as the compound, how does the inhibition at 1.1 µM (hERG (Kv11.1, KCNH2) [1]) read?
The inhibition at 1.1 µM was 91%.

What about the inhibition at 11.1 µM (hERG (Kv11.1, KCNH2) [2]) of the same compound?
Its inhibition at 11.1 µM is 102%.

How did the inhibition at 1.1 µM (hERG (Kv11.1, KCNH2) [1]) turn out when `CCOc1ccc(-n2cc(-c3ccccc3)c3c(SCc4cc(C)ccc4C)ncnc32)cc1` was run?
The inhibition at 1.1 µM was -10%.

What about the inhibition at 11.1 µM (hERG (Kv11.1, KCNH2) [2]) of the same compound?
Its inhibition at 11.1 µM is -16% (inactive).

What does the source list for `CCN(CC)CCCNc1ccnc2cc3ccccc3cc12`?
inhibition at 1.1 µM (hERG (Kv11.1, KCNH2) [1]): -2%; inhibition at 11.1 µM (hERG (Kv11.1, KCNH2) [2]): 23% (inactive)

For `COc1ccccc1NC1=C(N2CCCCC2)C(=O)c2ccccc2C1=O`, which inhibition at 1.1 µM (hERG (Kv11.1, KCNH2) [1]) is on record?
Its inhibition at 1.1 µM is 4%.

And the inhibition at 11.1 µM (hERG (Kv11.1, KCNH2) [2])?
The inhibition at 11.1 µM was 16% (inactive).

Which inhibition at 1.1 µM (hERG (Kv11.1, KCNH2) [1]) does the source give for `Oc1c(C(Nc2ccccn2)c2cccc(Oc3ccccc3)c2)ccc2cccnc12` (stereo unspecified) here?
Its inhibition at 1.1 µM is 20%.

What about the inhibition at 11.1 µM (hERG (Kv11.1, KCNH2) [2]) of the same compound?
The inhibition at 11.1 µM was 97% (active).

`CCOC(=O)c1cn(CC)c2cc(N3CCCCC3)c(F)cc2c1=O` was tested. Which inhibition at 1.1 µM (hERG (Kv11.1, KCNH2) [1]) did it give?
The inhibition at 1.1 µM was -4%.

What about the inhibition at 11.1 µM (hERG (Kv11.1, KCNH2) [2]) of the same compound?
The inhibition at 11.1 µM was 25%.

Which inhibition at 1.1 µM (hERG (Kv11.1, KCNH2) [1]) does the source give for `COc1cc(SC)ccc1C(=O)N1CCCC(C)C1` (stereo unspecified) here?
Its inhibition at 1.1 µM is 16%.

And the inhibition at 11.1 µM (hERG (Kv11.1, KCNH2) [2])?
Its inhibition at 11.1 µM is 8% (inactive).

Which results are given for `CC(C)(C)c1ccc(C(=O)Nc2nc3ccccc3s2)cc1`?
inhibition at 1.1 µM (hERG (Kv11.1, KCNH2) [1]): -3%; inhibition at 11.1 µM (hERG (Kv11.1, KCNH2) [2]): 7% (inactive)

`CCc1ccc(CNCC(O)c2ccccc2)cc1` (stereo unspecified) was tested. Which inhibition at 1.1 µM (hERG (Kv11.1, KCNH2) [1]) did it give?
Its inhibition at 1.1 µM is 32%.

What about the inhibition at 11.1 µM (hERG (Kv11.1, KCNH2) [2]) of the same compound?
Its inhibition at 11.1 µM is 67% (active).

Which results are given for `CCOc1ccc(-c2nonc2NC(=O)c2cccc(C)c2)cc1OCC`?
inhibition at 1.1 µM (hERG (Kv11.1, KCNH2) [1]): -1%; inhibition at 11.1 µM (hERG (Kv11.1, KCNH2) [2]): 0% (inactive)

For `COc1ccc2c(=O)cc(C(Cl)(Cl)Cl)oc2c1`, which inhibition at 1.1 µM (hERG (Kv11.1, KCNH2) [1]) is on record?
Its inhibition at 1.1 µM is 6%.

What about the inhibition at 11.1 µM (hERG (Kv11.1, KCNH2) [2]) of the same compound?
Its inhibition at 11.1 µM is 9% (inactive).

What does the source list for `CC(C)(C)CC(C)(C)NCC(O)COc1ccc2c(c1)CCC2` (stereo unspecified)?
inhibition at 1.1 µM (hERG (Kv11.1, KCNH2) [1]): 8%; inhibition at 11.1 µM (hERG (Kv11.1, KCNH2) [2]): 62% (active)

What does the source list for `COc1cc(CNCCc2ccc(Cl)cc2)cc(OC)c1O`?
inhibition at 1.1 µM (hERG (Kv11.1, KCNH2) [1]): 16%; inhibition at 11.1 µM (hERG (Kv11.1, KCNH2) [2]): 59% (active)

What does the source list for `COc1cc2c(cc1OC)C1=NNC(=O)C1=NC(C)(C)C2`?
inhibition at 1.1 µM (hERG (Kv11.1, KCNH2) [1]): 9%; inhibition at 11.1 µM (hERG (Kv11.1, KCNH2) [2]): 11% (inactive)

`Oc1ccc(Br)cc1CN1CCN(Cc2ccc(Cl)cc2)CC1` was tested. Which inhibition at 1.1 µM (hERG (Kv11.1, KCNH2) [1]) did it give?
The inhibition at 1.1 µM was 2%.

What about the inhibition at 11.1 µM (hERG (Kv11.1, KCNH2) [2]) of the same compound?
Its inhibition at 11.1 µM is 10% (inactive).

Which results are given for `CC1CC2=C(CC1CNCCCN(C)C)C(C)(C)CCC2` (stereo unspecified)?
inhibition at 1.1 µM (hERG (Kv11.1, KCNH2) [1]): -3%; inhibition at 11.1 µM (hERG (Kv11.1, KCNH2) [2]): 77% (active)

How did the inhibition at 1.1 µM (hERG (Kv11.1, KCNH2) [1]) turn out when `CN(C)c1ccc(N=Cc2ccc(N3CCOCC3)cc2)cc1` was run?
The inhibition at 1.1 µM was -6%.

What about the inhibition at 11.1 µM (hERG (Kv11.1, KCNH2) [2]) of the same compound?
Its inhibition at 11.1 µM is -3% (inactive).

What does the source list for `CCOC(=O)c1cnc2ccc(OC)cc2c1NCc1ccccc1`?
inhibition at 1.1 µM (hERG (Kv11.1, KCNH2) [1]): -2%; inhibition at 11.1 µM (hERG (Kv11.1, KCNH2) [2]): 4% (inactive)

Which inhibition at 1.1 µM (hERG (Kv11.1, KCNH2) [1]) does the source give for `Cc1c(C)n(CC(O)CNC2CCCCC2C)c2ccccc12` (stereo unspecified) here?
Its inhibition at 1.1 µM is -10%.

And the inhibition at 11.1 µM (hERG (Kv11.1, KCNH2) [2])?
The inhibition at 11.1 µM was 20% (inactive).

With `CCOC(=O)c1c[nH]c2c(CC)cccc2c1=O` as the compound, how does the inhibition at 1.1 µM (hERG (Kv11.1, KCNH2) [1]) read?
The inhibition at 1.1 µM was 10%.

And the inhibition at 11.1 µM (hERG (Kv11.1, KCNH2) [2])?
The inhibition at 11.1 µM was 5% (inactive).
